Broadly, the IC50 is the concentration needed to halve the response being measured. In general, CC50 refers to the concentration at which the toxic effect on the cells reaches its halfway point. Higher therefore signals lower toxicity to the cells.

The subject of data set [1] is HIV-1 LAI. In words: anti-HIV-1 activity: replication of HIV-1 LAI on CEM-SS cells. The format is cell-based. The conditions noted are these: Table 2, HIV-1 LAI, CEM-SS cells; for IC50: Human immunodeficiency virus 1, 120 h, 5 days, read-out: IC50, anti-HIV-1 activity. The procedure: The CEM-SS and the HIV-1 resistant to Nevirapine (N119) carrying a point mutation at codon 181 of the IT, were supplied respectively by P. NARA and D. RICHMAN through the intermediary of the AIDS Research and Reference Reagent Program, Division of AIDS, NIAID, NIH (USA) (Catalogue references : No. 776 and No. 1392).
(§1) The virus production was measured by quantifying the activity of the inverse transcriptase associated with viral particles released into the culture supernatant. In short, cells were infected with 100 TCID50 for 30 minutes; after adsorption of the virus, unbound particles were removed by two washings and the cells were cultivated in the presence of different concentrations of the compounds tested for 5 days before determining the viral production. The concentration inhibiting 50% of the viral multiplication (IC50) came from the computer plot of the median effect of the dose effect results (Chou et al. Elsevier Science Publishers, Cambridge U.K. (1985), 19-28).

A short description of data set [2]: cytotoxicity on non-infected cells (MTT test). Format: cell-based. The following applies: human; Table 2; non-infected CEM-SS cells, MTT, 5 days. The procedure: (§2) In parallel experiments, the cytotoxicity of the molecules was measured on non-infected cells, after an incubation of 5 days in the presence of these molecules, by using a […] titration (MTT test) based on the ability of the mitochondrial dehydrogenases of the living cells to reduce 3-(4,5-dimethylthiazol-2-yl)-2,5-diphenyltetrazolium bromide in formazan (Mosmann et al. J. Immunol. Methods ([…]), 65, 55-63). The concentration cytotoxic at 50% (CC50) is the concentration at which the DO540 has been reduced to half and is calculated by using the program mentioned above.
A general note: Formazan colour is commonly taken as a measure of viable cells.

Data set [3] relates to CEM-SS cells. In words: cytotoxicity on non-infected cells (MTT test). The following applies: MTT, 5 days. The format is cell-based. As to the method:
as §2

For data set [4], the system named is HIV-1 resistant to Nevirapine (N119). The experiment in a line: microbe, parasite or virus in culture. Format: cell-based. The following applies: for IC50: Human immunodeficiency virus 1, CEM-SS, read-out: IC50, strain resistant to Nevirapine; for SI (selectivity index): Table 3, strain resistant to Nevirapine. The procedure:
The effects of the compounds were evaluated on the replication of HIV-1 (see Table 2) on CEM-SS cells (cell lines of the lymphocytic lineage) strongly infected with HIV-1 LAI as described by Moog et al. (Antiviral Research (1994), 24, 275-288). The CEM-SS and the HIV-1 resistant to Nevirapine (N119) carrying a point mutation at codon 181 of the IT, were supplied respectively by P. NARA and D. RICHMAN through the intermediary of the AIDS Research and Reference Reagent Program, Division of AIDS, NIAID, NIH (USA) (Catalogue references : No. 776 and No. 1392).
as §1

The target of data set [5] is T1, IT of recombinant HIV-1 (Human immunodeficiency virus type 1 group M subtype B, UniProt P03369).
T1 construct: purify the IT enzyme of the recombinant HIV-1; made in house; host or cells: yeast cells transformed with the pAB 24/IT-4 vector
The experiment in a line: inhibition of the inverse transcriptase of recombinant HIV-1. The format is biochemical. The procedure:
Yeast cells transformed with the pAB 24/IT-4 vector were used to purify the IT enzyme of the recombinant HIV-1 as described by Sallafranque-Andreola et al. (1989 Eur. J. Biochem. 184, 364-374).
Incubation was carried out at 37° C. for 10 minutes in the presence of various matrix-primers.
a) Poly C-oligo dG: the reaction mixture contained a final volume of 0.05 ml, Tris-HCl 50 mM pH 8.0, MgCl2 5 mM, dithiothreitol 4 mM, 0.48 A260 /ml of poly C-oligo dG (5:1), 1.0 μCi of [^3 H]dGTP (28 Ci/mmole), dGTP 2 μM, KCl 80 mM, 1 μg of bovine serum albumin and IT 20-50 nM.
b) Poly A-oligo dT: the same conditions as in a), except that 0.48 A260 /ml of poly A-oligo dT (5:1), 0.5 μCi of [^3 H]dTTP (46 Ci/mmole), dTTP 20 μM were used.
The reactions were stopped by adding in the cold 1 ml of 10% trichloroacetic acid plus sodium pyrophosphate 0.1 M. The precipitates were filtered through nitrocellulose membranes, washed with 2% trichloroacetic acid, dried and counted in a PPO/POPOP/toluene scintillation mixture.
All the compounds were dissolved in dimethyl#sulphoxide (DMSO). The test samples were prepared in the presence of the same final concentration of DMSO. IC50 is the concentration required to inhibit the activity of the IT of the recombinant HIV-1 by 50%.

The subject of data set [6] is isolated virion HIV-1LAI. In words: infectivity of the isolated virion after treatment with inhibitors (HT4LacZ cells). The format is cell-based. The procedure: H9 cells chronically infected with HIV-1LAI (10^8 /ml) were cocultivated with MT4 cells (10^8 /ml) for 48 hours in an RMPI medium supplemented by 10% of calf foetal serum (CFS). The cells were then removed by centrifugation and then the supernatant liquid was filtered (0.45 μm) to remove residual cells and cell debris.
After having been incubated with the various inhibitors, the viral supernatants (200 μl) were deposited in the filtering part of a VectaSpin tube (WHATMAN) fitted with an ANAPORE membrane of porosity 0.02 μm. For 10 minutes they were subjected to centrifugation, the acceleration of which reached 6000 g at the filtering membrane. The viral residuums thereby obtained (10-15 μl ) were washed 3 times under the same conditions with 500 μl of RPMI then restored to their initial volumes with RPMI containing 10% of CFS.
The HT4LacZ-1 cells were kept in a DMEM medium (glucose 4.5 g/l) supplemented with 10% of calf foetal serum in the presence of Gentamycin (50 mg/l). These cells stemmed from Hela cells in which had been cloned, on the one hand the gene coding for the human CD4 so as to render them susceptible to infection by the HIV (Chesebro and Wehrly, 1988, J. Virol., 62, 3779-3788), and on the other hand the gene for β-Galactosidase which, placed under the dependent of the LTR of the HIV-1 served as a marker for the viral infection (Rocancourt et al. (1990) J. Virol. 1990 64-6, 2660-2688). When the virus infects such cells after its integration into the cellular genome, the production of the regulatory protein TAT activates the LTR of the HIV. The result is an activation of the gene of β-Galactosidase which leads to its production in the intracellular medium and more particularly in the nucleus. It is this protein that serves as a marker of the infection.
The evening of day 0, the HT4LacZ-1 cells were diluted at the rate of 75000 cells per ml of medium. 100 μl of this suspension was then distributed over a flat bottomed plate with 96 wells and was cultivated overnight at 37° C. (5% of CO2).
The morning of day 1, the supernatant liquid was removed by aspiration. Each well was then complemented with 200 μl of the viral supernatant dilutions to be tested. Each dilution was made in a DMEM medium (glucose 4.5 g/l) supplemented with 10% of CFS. The plates were then placed in an environment at 37° C. in the presence of 5% of CO2.
After 48 hours of culture, the supernatant liquid was aspirated, then each well was washed 3 times in PBS before being complemented with 200 μl of developing buffer (Tris-HCl 50 mM pH=8.5, ONPG 5 mg/ml β-mercapto-ethanol 7 μl/ml Triton×100 0.05%). After 4 hours of incubation at 37° C., the optical density of each well was measured.
The concentration of each of the inhibitors of the IT of the HIV-1 was adjusted to 50 mM in DMSO. The later dilutions were carried out on RPMI 1640. 2 μl of suitable dilutions of each of these inhibitors were added to 198 μl of a freshly unfrozen viral suspension. After 3 hours of incubation at ambient temperature, these suspensions were filtered on 0.02 μ VecraSpin tubes, then washed 3 times with 500 μl of RPMI 1640. The viral residuums were then adjusted to 200 μL with the culture medium (RPMI-10% CFS), then tested with regard to their infectivity on HT4LacZ cells.

Like-named read-outs stand apart in the source and are kept apart here.

Take `CCc1cnc(O)c(N)c1Sc1cc(C)cc(C)c1` [Compound 8b, 3-amino-5-ethyl-4-(3', 5'-dimethylphenyl)thio-pyridin-2(1H)-one]: in data set [1], the IC50 was determined as 0.01 µM and the “SI (selectivity index)” value was > 1000. Further, the CC50 at 120 h in data set [2] was > 10 µM. Also, in data set [3] (Table 3, non-infected cells), the CC50 is > 10 µM. Moreover, in data set [4], the IC50 was determined as 6.7 µM and the “SI (selectivity index)” value is > 1.
`Cc1c(Sc2ccccc2)n(COCc2ccccc2)c(=O)[nH]c1=O` [BPT, 1-benzyloxymethyl-6-(phenylthio)thymine, reference compound]: the IC50 in data set [5] stood at 0.4 µM.
As to `CCc1c(C)nc(O)c(NC(C)=O)c1Sc1cc(C)cc(C)c1` [Compound 11g, 3-acetamido-5-ethyl-6-methyl-4-(3', 5'-dimethylphenyl)thio-pyridin-2(1H)-one], in data set [1], the IC50 was 0.05 µM and the “SI (selectivity index)” value is listed as > 1600. For the same compound, the CC50 at 120 h in data set [2] is > 80 µM. Also, the CC50 in data set [3] (Table 3, non-infected cells) is > 100 µM. In addition, in data set [4], the IC50 was 4.3 µM and the “SI (selectivity index)” value is listed as > 23.
Regarding `CC(=O)Nc1c(Sc2cc(C)cc(C)c2)c(C)c[nH]c1=O` [Compound 11b, 3-acetamido-5-methyl-4-(3', 5'-dimethylphenyl)thio-pyridin-2(1H)-one], the IC50 in data set [1] was 0.067 µM; in data set [4] it was > 100 µM; in data set [5], > 4 µM. For the same compound, in data set [1], the “SI (selectivity index)” value is on record as > 1492. The 50% cytotoxic concentration (CC50) at 120 h in data set [2] is > 100 µM. Moreover, the CC50 in data set [3] (Table 3, non-infected cells) was > 100 µM.
Turning to `CCC(=O)Nc1c(Sc2cc(C)cc(C)c2)c(C)c[nH]c1=O` [Compound 11c, 5-methyl-3-propionamido-4-(3', 5'-dimethylphenyl)thio-pyridin-2(1H)-one], the figures for the IC50 in data set [1] and in data set [5] were 41.4 µM and > 4 µM, respectively. Further, the “SI (selectivity index)” value in data set [1] was > 2. For the same compound, the CC50 at 120 h in data set [2] is > 100 µM.
The matching figures for `CCc1c(Sc2cc(C)cc(C)c2)cc(=O)[nH]c1C` [Compound 16, 5-ethyl-6-methyl-4-(3', 5'-dimethylphenyl)thio-pyridin-2(1H)-one]: 0.5 µM, 0.4 µM, > 20 and > 10 µM.
For `Cc1cc(C)cc(Sc2c(N)c(O)nc3ccccc23)c1` [Compound 8f, 3-amino-4-(3', 5'-dimethylphenyl)-thio-quinoline-2(1H)-one], in data set [1], the IC50 turned out to be 0.25 µM and the “SI (selectivity index)” value was > 36. For the same compound, in data set [2], the CC50 at 120 h was > 9 µM. Also, in data set [3] (Table 3, non-infected cells), half-maximal cytotoxicity (CC50) was put at 8.2 µM. Further, in data set [4], the half-maximal inhibitory concentration (IC50) turned out to be 6.6 µM and the “SI (selectivity index)” value was > 1.5.
Regarding `Cc1cc(C)cc(Sc2c([N+](=O)[O-])c(O)nc3ccccc23)c1` [Compound 7f, 3-nitro-4-(3', 5'-dimethylphenyl)-thiopuinoline-2(1H)-one], the 50% inhibitory concentration (IC50) in data set [1] was 3.8 µM; in data set [4], > 10 µM. In addition, in data set [1], the “SI (selectivity index)” value is on record as > 26. For the same compound, the CC50 is > 100 µM in data set [3] (Table 2, non-infected CEM-SS cells) and > 10 µM in data set [3] (Table 3, non-infected cells).
Consider `Cc1cccc(Sc2c(C)c[nH]c(=O)c2[N+](=O)[O-])c1` [Compound 7e, 5-methyl-3-nitro-4-(3'-methylphenyl)thio-pyridin-2(1H)-one], for which the half-maximal cytotoxic concentration (CC50) at 120 h in data set [2] was > 10 µM. Moreover, in data set [5], the IC50 was > 10 µM.
For `Cc1cccc(Sc2c(C)c[nH]c(=O)c2N)c1` [Compound 8e], the IC50 in data set [1] was 1.4 µM; in data set [4] it was 41.5 µM; in data set [5] (read-out: IC50, inhibition of the inverse transcriptase, Table 5, IT of recombinant HIV-1), > 4 µM. Further, the results for the “SI (selectivity index)” value in data set [1] and in data set [4] were > 55 and > 1, respectively. This compound also gave a CC50 at 120 h in data set [2] of 78 µM.
As for `Cc1c(Sc2ccccc2)n(COCCO)c(=O)[nH]c1=O` [HEPT, 1-[(2-hydroxyethoxy)methyl]-6-(phenylthio)thymine], the IC50 in data set [5] is > 6 µM. Moreover, in data set [6] (Human immunodeficiency virus 1, 1 μM inhibitor, 3 h, 100 TCID50, compared with viral supernatant subjected to same treatments, mean of 1 to 4 experiments, read-out: Activity of the isolated virions after treatment), the activity at 1 µM was found to be 121%. In addition, the activity at 10 µM in data set [6] (Human immunodeficiency virus 1, 10 μM inhibitor, 3 h, 100 TCID50, compared with viral supernatant subjected to same treatments, mean of 1 to 4 experiments, read-out: Activity of the isolated virions after treatment) was 141%. The “activity on the isolated virion (in words)” value in data set [6] (isolated virion) is “totally inactive”.
For the compound `CCc1cnc(O)c([N+](=O)[O-])c1Sc1cc(C)cc(C)c1` [Compound 7b, 5-ethyl-3-nitro-4-(3', 5'-dimethylphenyl)thio-pyridin-2(1H)-one], the “SI (selectivity index)” value in data set [1] is > 111. For the same compound, the 50% cytotoxic concentration (CC50) at 120 h in data set [2] is > 10 µM. For the same compound, the CC50 in data set [3] (Table 3, non-infected cells) was > 10 µM. Besides, in data set [4], the half-maximal inhibitory concentration (IC50) worked out at 6.7 µM and the “SI (selectivity index)” value is > 1.
